Measurements taken from article PMC6155683, “Pharmacokinetics Studies of 12 Alkaloids in Rat Plasma after Oral Administration of Zuojin and Fan-Zuojin Formulas” (Molecules : A Journal of Synthetic Chemistry and Natural …, 2017).
Like-named read-outs stand apart in the source and are kept apart here.

Legend:
Caco-2 cell monolayer = conditions: cited from earlier work
[1] = PK study of the 12 alkaloids in rat plasma after oral administration of ZJ and FZJ extract (LC–MS/MS); assay type: in vivo
Description: The time schedule included 15 time-points and six rats were sampled at each time-point. All the rats were orally administered with ZJ extract (suspended in water) at a dose of 3.38 g/kg body weight (dosages of the 12 alkaloids were shown in Table S4), equivalent to crude drug dose of 12 g/kg body weight. Blood samples were collected from the suborbital vein of the rats at 10, 20, 30, 60, 90, 120, 180, 240, 300, 330, 360, 480, 720, 1440, 2160 min after administration, and centrifuged immediately at 5000 rpm for 10 min. The plasma samples were stored at −20 °C until analysis.
Similarly, the time schedule of other rats included 15 time-points and six rats were orally administered with FZJ extract at a dose of 3.76 g/kg body weight (also equivalent to crude drug dose of 12 g/kg body weight, Table S4). Blood samples were collected and treated as mentioned above in the PK study of ZJ extract.
PK parameters of the 12 alkaloids including AUC0→t, AUC0→∞, mean retention time (MRT0→t, MRT0→∞), and elimination half-life (t1/2) were calculated with non-compartmental method by DAS 2.0 software (Mathematical Pharmacology Professional Committee of China, Shanghai, China). Maximum plasma drug concentration (Cmax) and time to reach the maximum plasma drug concentration (Tmax) were observed directly from the detected C–T data. The results were expressed as arithmetic mean ± standard deviation (SD).

[2] = Stability of analytes in rat plasma under storage conditions; assay type: physicochemical; conditions: n = 6; for Stability RE, 3 freeze-thaw cycles / Stability RE, 30 days at −20 °C: rat plasma; for Stability RE, processed samples' stability: room temperature 24 h
Description: The stabilities of analytes in plasma were assessed by analyzing the QC samples at three concentration levels under the following storage conditions: after three freeze (−20 °C)-thaw (room temperature) cycles; stored at −20 °C for 30 days, and comparing the results with those of freshly prepared QC samples. Stabilities of the processed samples at room temperature for 24 h were also assessed.

[3] = jejunum vs ileum and colon; cited from earlier work
P-gp = conditions: not told; cited from earlier work
[4] = Dose modified systemic exposure (AUC0→∞/D, Cmax/D)
Description: Because the alkaloids content in ZJ and FZJ were no longer linear with the proportion of CR and EF after extraction process, AUC0→∞/D (ratio of AUC0→∞ and dose) and Cmax/D (ratio of Cmax and dose) were calculated to estimate the dose modified systemic exposure levels of the 12 alkaloids (Table 3). […] Physicochemical properties of these alkaloids had been calculated in silico to predict their human colon adenocarcinoma cell (Caco-2) permeability according to the three-property based rule (3PRule). Polar surface area (PSA), logarithm of the n-octanol/water distribution coefficient (LogD), molecular weight (MW), hydrogen bond donors (HBD), hydrogen bond acceptors (HBA), number of free rotatable bonds (NRB) and molar solubility (S) of the alkaloids were retrieved from SciFinder® (American Chemical Society).

[5] = Two-compartment model fitting of C–T curves (DAS 2.0); assay type: in vivo, rat
Description: Double peaks in C–T curves were observed repeatedly in the PK study of ZJ and related TCM prescriptions, but explanations to the phenomenon were still ambiguous. Generally, possible reasons for the double peak phenomenon could be summarized as follows: (a) enterohepatic circulation; […] (c) irregular pattern of gastric emptying. […] Moreover, Tmax of the alkaloids after administration of ZJ extract were deferred from that of FZJ administration. […] It probably play a major role in the double peak phenomenon, since the GI motility can affect the drug absorption.

C[n+]1c2n(c(=O)c3ccccc31)CCc1c-2[nH]c2ccccc12 [dehydroevodiamine]
Papp (Caco-2 cell monolayer): 12.6 ×10⁻⁶ cm/s
Csec (drug concentration of the secondary peak in C–T curve) ([1]; rat, in vivo, po): 117.29 ± 45.45 ng/mL
Tsec (time of the secondary peak in C–T curve) ([1]; rat, in vivo, po): 90 min
AUC(0-inf) ([1]; rat, in vivo, po, 3.38 g/kg): 537 ± 55 ng·h/mL
AUC(0-t) ([1]; rat, in vivo, po, 3.38 g/kg): 532 ± 57.8 ng·h/mL
Cmax ([1]; rat, in vivo, po, 3.38 g/kg): 155 ± 27.9 ng/mL
MRT inf ([1]; rat, in vivo, po, 3.38 g/kg): 4.71 h
MRT last ([1]; rat, in vivo, po, 3.38 g/kg): 4.34 h
Tmax ([1]; rat, in vivo, po, 3.38 g/kg): 4 h
half-life ([1]; rat, in vivo, po, 3.38 g/kg): 3.21 ± 2.27 h
AUC(0-inf) ([1]; rat, in vivo, po, 3.76 g/kg): 286 ± 24.1 ng·h/mL
AUC(0-t) ([1]; rat, in vivo, po, 3.76 g/kg): 275 ± 23.2 ng·h/mL
Cmax ([1]; rat, in vivo, po, 3.76 g/kg): 85.3 ± 13.4 ng/mL
MRT inf ([1]; rat, in vivo, po, 3.76 g/kg): 5.96 h
MRT last ([1]; rat, in vivo, po, 3.76 g/kg): 4.66 h
Tmax ([1]; rat, in vivo, po, 3.76 g/kg): 1.5 h
half-life ([1]; rat, in vivo, po, 3.76 g/kg): 5.03 ± 2.87 h
Stability RE, 3 freeze-thaw cycles ([2]; high QC concentration): 5.86%
Stability RE, 30 days at −20 °C ([2]; high QC concentration): 4.85%
Stability RE, 3 freeze-thaw cycles ([2]; low QC concentration): 4.36%
Stability RE, 30 days at −20 °C ([2]; low QC concentration): −6.34%
Stability RE, 3 freeze-thaw cycles ([2]; medium QC concentration): 14.45%
Stability RE, 30 days at −20 °C ([2]; medium QC concentration): −1.12%
Stability RE, processed samples' stability ([2]; high QC concentration): −1.09%
Stability RE, processed samples' stability ([2]; low QC concentration): −0.76%
Stability RE, processed samples' stability ([2]; medium QC concentration): 4.78%

COc1cc2c(cc1OC)-c1cc3ccc(OC)c(OC)c3c[n+]1CC2 [palmatine]
absorption rate constant (Ka) compared between intestinal sites [3]: greater than that at ileum and colon
AUC(0-inf) ([1]; rat, in vivo, po, 3.38 g/kg): 96.6 ± 33.2 ng·h/mL
AUC(0-t) ([1]; rat, in vivo, po, 3.38 g/kg): 88.3 ± 24.9 ng·h/mL
Cmax ([1]; rat, in vivo, po, 3.38 g/kg): 34.1 ± 19.2 ng/mL
MRT inf ([1]; rat, in vivo, po, 3.38 g/kg): 8.75 h
MRT last ([1]; rat, in vivo, po, 3.38 g/kg): 6.74 h
Tmax ([1]; rat, in vivo, po, 3.38 g/kg): 1.5 h
half-life ([1]; rat, in vivo, po, 3.38 g/kg): 5.65 ± 2.41 h
AUC(0-inf) ([1]; rat, in vivo, po, 3.76 g/kg): 18.9 ± 5.5 ng·h/mL
AUC(0-t) ([1]; rat, in vivo, po, 3.76 g/kg): 18.2 ± 4.98 ng·h/mL
Cmax ([1]; rat, in vivo, po, 3.76 g/kg): 9.74 ± 3.53 ng/mL
MRT inf ([1]; rat, in vivo, po, 3.76 g/kg): 4.49 h
MRT last ([1]; rat, in vivo, po, 3.76 g/kg): 3.86 h
Tmax ([1]; rat, in vivo, po, 3.76 g/kg): 3 h
half-life ([1]; rat, in vivo, po, 3.76 g/kg): 2.51 ± 1.73 h
Stability RE, 3 freeze-thaw cycles ([2]; high QC concentration): −12.89%
Stability RE, 30 days at −20 °C ([2]; high QC concentration): −12.35%
Stability RE, 3 freeze-thaw cycles ([2]; low QC concentration): −14.23%
Stability RE, 30 days at −20 °C ([2]; low QC concentration): −17.74%
Stability RE, 3 freeze-thaw cycles ([2]; medium QC concentration): −7.2%
Stability RE, 30 days at −20 °C ([2]; medium QC concentration): −13.85%
Stability RE, processed samples' stability ([2]; high QC concentration): −12.47%
Stability RE, processed samples' stability ([2]; low QC concentration): −9.27%
Stability RE, processed samples' stability ([2]; medium QC concentration): −2.85%
P-gp substrate (P-gp): P-gp substrates

Cn1c(=O)n(CCC2(O)C(=O)Nc3ccccc32)c(=O)c2ccccc21 (stereo not drawn) [wuchuyuamide-I]
AUC(0-t) ([1]; 3.38 g/kg, rat plasma, oral ZJ extract, mean ± SD, n = 6, read-out: AUC0→t): 11.5 ± 1.4 ng·h/mL
AUC(0-inf) ([1]; 3.38 g/kg, rat plasma, oral ZJ extract, mean ± SD, n = 6, read-out: AUC0→∞): 12.8 ± 1.43 ng·h/mL
Cmax ([1]; 3.38 g/kg, rat plasma, oral ZJ extract, mean ± SD, n = 6, read-out: Cmax): 3.45 ± 1.73 ng/mL
MRT last ([1]; 3.38 g/kg, rat plasma, oral ZJ extract, mean ± SD, n = 6, read-out: MRT0→t (converted)): 3.86 h
MRT inf ([1]; 3.38 g/kg, rat plasma, oral ZJ extract, mean ± SD, n = 6, read-out: MRT0→∞ (converted)): 5.22 h
half-life ([1]; 3.38 g/kg, rat plasma, oral ZJ extract, mean ± SD, n = 6, read-out: t1/2): 3.64 ± 1.5 h
Tmax ([1]; 3.38 g/kg, rat plasma, oral ZJ extract, read-out: Tmax (converted)): 1.5 h
AUC(0-t) ([1]; 3.76 g/kg, rat plasma, oral FZJ extract, mean ± SD, n = 6, read-out: AUC0→t): 48.2 ± 8.86 ng·h/mL
AUC(0-inf) ([1]; 3.76 g/kg, rat plasma, oral FZJ extract, mean ± SD, n = 6, read-out: AUC0→∞): 50.1 ± 8.81 ng·h/mL
Cmax ([1]; 3.76 g/kg, rat plasma, oral FZJ extract, mean ± SD, n = 6, read-out: Cmax): 10.7 ± 4.43 ng/mL
MRT last ([1]; 3.76 g/kg, rat plasma, oral FZJ extract, mean ± SD, n = 6, read-out: MRT0→t (converted)): 5.77 h
MRT inf ([1]; 3.76 g/kg, rat plasma, oral FZJ extract, mean ± SD, n = 6, read-out: MRT0→∞ (converted)): 6.89 h
half-life ([1]; 3.76 g/kg, rat plasma, oral FZJ extract, mean ± SD, n = 6, read-out: t1/2): 4.92 ± 1.83 h
Tmax ([1]; 3.76 g/kg, rat plasma, oral FZJ extract, read-out: Tmax (converted)): 0.5 h
Tsec (time of the secondary peak in C–T curve) ([1]; rat plasma, oral ZJ extract): 20 min
Csec (drug concentration of the secondary peak in C–T curve) ([1]; rat plasma, oral ZJ extract, mean ± SD, n = 6): 2.55 ± 0.38 ng/mL
AUC0→∞/D (ratio of AUC0→∞ and dose) ([4]; oral FZJ extract): 278.39
Cmax/D (ratio of Cmax and dose) ([4]; oral FZJ extract): 59.61
AUC0→∞/D (ratio of AUC0→∞ and dose) ([4]; oral ZJ extract): 172.57
Cmax/D (ratio of Cmax and dose) ([4]; oral ZJ extract): 46.62
AIC (Akaike's information criterion method), two-compartment model fitting ([5]; oral FZJ extract): 66.844 ± 7.076
r^2 (correlation coefficient method), two-compartment model fitting ([5]; oral FZJ extract): 0.519 ± 0.407
AIC (Akaike's information criterion method), two-compartment model fitting ([5]; oral ZJ extract): 35.057 ± 11.851
r^2 (correlation coefficient method), two-compartment model fitting ([5]; oral ZJ extract): 0.544 ± 0.140
Stability RE, 3 freeze-thaw cycles ([2]; high QC concentration): 0.37%
Stability RE, 30 days at −20 °C ([2]; high QC concentration): −1.38%
Stability RE, 3 freeze-thaw cycles ([2]; low QC concentration): 18.91%
Stability RE, 30 days at −20 °C ([2]; low QC concentration): 14.46%
Stability RE, 3 freeze-thaw cycles ([2]; medium QC concentration): −14.69%
Stability RE, 30 days at −20 °C ([2]; medium QC concentration): −10.79%
Stability RE, processed samples' stability ([2]; high QC concentration): −10.58%
Stability RE, processed samples' stability ([2]; low QC concentration): 15.1%
Stability RE, processed samples' stability ([2]; medium QC concentration): −14.07%
